# Experimental data published in PubChem BioAssay AID1963861 (Molecular Pharmacology Branch, DTP, NCI, 2024).
# System: 885724-159-R-J1-PDC KRAS PDC multicell spheroid viability
# Assay: Anticancer human tumor 885724-159-R-J1-PDC patient-derived pancreatic adenocarcinoma cell line growth inhibition [KRAS2]
# Settings: for IC50: curve of first compound; for viability, T/C: stronger effect = lower value
# Description: Multicellular complex tumor spheroid response to RAS pathway inhibitors in combination with a targeted agents in patient-derived cell lines with oncogenic KRAS variants from multiple cancer types
# A high-throughput screen of multi-cell type tumor spheroids was designed to identify active combinations of targeted small molecules and KRAS pathway inhibitors. Complex spheroids include a stromal component modeled by human endothelial cells (HUVEC) and fibroblasts modeled by human mesenchymal stem cells (MSCs). The concentration ranges selected for each drug and investigational agent were based upon clinically achievable concentrations if the clinical Cmax of the agent was known.
# Compounds. The drugs and investigational agents: BI-3406 (NSC825286), BAY-293 (NSC824723), batoprotafib (TNO155; NSC825523), sotorasib (AMG 510; NSC818433), MRTX1257 (NSC819558), elimusertib (BAY 1895344; NSC800525), molibresib (GSK525762; NSC774829), temuterkib (LY3214996; NSC803410), venetoclax (NSC766270), alisertib (NSC759677), olaparib (NSC753686), talazoparib (NSC767125), erdafitinib (NSC781556), ipatasertib (NSC767898), cabozantinib (NSC761068), nintedanib (NSC756659), abemaciclib (NSC768073), docetaxel (NSC628503), trametinib (NSC758246), and sapanisertib (NSC764658) were obtained from the National Cancer Institute (NCI) Developmental Therapeutics Program Chemical Repository. The FDA-approved anticancer drug set is available from the Developmental Therapeutics Program. […] The stock solutions were prepared in dimethyl sulfoxide (DMSO, Sigma-Aldrich, St. Louis, MO, cat. D2650) at 800-fold the tested concentration and stored at -70 degrees C prior to their use. All drugs and investigational agents were tested over a range starting from a high concentration at or near the clinical Cmax and decreasing in half-log increments. If the clinical Cmax for an agent had not been determined, the highest concentration tested was 10 microM.
# Cell Culture. All cells were maintained in an incubator at 37 degrees C and 5% CO2 with 95% humidity. The PDC lines were cultured according to standard operating procedures established by the NCI PDMR (https://pdmr.cancer.gov/sops/default.htm). Briefly, all PDCs were thawed and cultured in Matrigel-coated flasks prepared with a working solution of 1X Ham's F-12 nutrient mix, without supplementation (Invitrogen, Waltham, MA, cat. 11765054), 100 U/mL penicillin-streptomycin (Invitrogen, cat. 15140122), and 2.5% Matrigel (Corning Inc., Corning, NY, cat. 354248) for the first three passages. All PDCs were cultured in complete DMEM/F-12 media containing advanced DMEM/F-12 (Invitrogen, cat. 12634028), 4.9% defined fetal bovine serum, heat inactivated (HyClone Laboratories Inc., Logan, UT, cat. SH30070.03HI), 389 ng/mL hydrocortisone (Sigma-Aldrich, cat. H4001), 9.7 ng/mL human EGF recombinant protein (Invitrogen, cat. PHG0313), 23.4 microg/mL adenine (Sigma-Aldrich, cat. A2786), 97.3 U/mL penicillin-streptomycin (Invitrogen, cat. 15140122), 1.9 mM L-glutamine (Invitrogen, cat. 25030081), and 9.7 microM Y-27632 dihydrochloride (Tocris Bioscience, Bristol, United Kingdom, cat. 1254). The PDCs were cultured in complete DMEM/F12 media without 9.7 microM Y-27632 dihydrochloride for at least two passages prior to the screen. The established cell line HOP-62 was cultured in RPMI 1640 medium, HEPES (Invitrogen, cat. 22400105) with 10% defined fetal bovine serum (HyClone Laboratories Inc., cat. SH30070.03) and 2 mM L-glutamine (Invitrogen, cat. 25030081). The pooled donor HUVEC were cultured in endothelial cell growth medium 2 (PromoCell, Heidelberg, Germany, cat. C-22011) and the hMSC were cultured in mesenchymal stem cell growth medium 2 (PromoCell, cat. C-28009). For all experiments, HUVEC and hMSC were used at passages </=5, while the malignant cell lines were used at passages </=15. […]
# [1] = second compound 0.1 µM, first compound 0.0316 µM
# [2] = second compound 0.1 µM, first compound 0.1 µM
# [3] = second compound 0.1 µM, first compound 0.316 µM
# [4] = second compound 0.1 µM, first compound 1 µM
# [5] = second compound 0.1 µM, first compound 3.16 µM
# [6] = second compound 0.1 µM, first compound 10 µM
# [7] = second compound 0.316 µM, first compound 0.0316 µM
# [8] = second compound 0.316 µM, first compound 0.1 µM
# [9] = second compound 0.316 µM, first compound 0.316 µM
# [10] = second compound 0.316 µM, first compound 1 µM
# [11] = second compound 0.316 µM, first compound 3.16 µM
# [12] = second compound 0.316 µM, first compound 10 µM
# [13] = second compound 1 µM, first compound 0.0316 µM
# [14] = second compound 1 µM, first compound 0.1 µM
# [15] = second compound 1 µM, first compound 0.316 µM
# [16] = second compound 1 µM, first compound 1 µM
# [17] = second compound 1 µM, first compound 3.16 µM
# [18] = second compound 1 µM, first compound 10 µM
# [19] = second compound 3.16 µM, first compound 0.0316 µM
# [20] = second compound 3.16 µM, first compound 0.1 µM
# [21] = second compound 3.16 µM, first compound 0.316 µM
# [22] = second compound 3.16 µM, first compound 1 µM
# [23] = second compound 3.16 µM, first compound 3.16 µM
# [24] = second compound 3.16 µM, first compound 10 µM
# [25] = second compound 10 µM, first compound 0.0316 µM
# [26] = second compound 10 µM, first compound 0.1 µM
# [27] = second compound 10 µM, first compound 0.316 µM
# [28] = second compound 10 µM, first compound 1 µM
# [29] = second compound 10 µM, first compound 3.16 µM
# [30] = second compound 10 µM, first compound 10 µM
# 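Also: spheroids exposed to agents for 7 days before readout.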
SMILES,IC50 (second compound 0.1 µM),IC50 (second compound 0.316 µM),IC50 (second compound 1 µM),IC50 (second compound 3.16 µM),IC50 (second compound 10 µM),"viability, T/C [1]","viability, T/C [2]","viability, T/C [3]","viability, T/C [4]","viability, T/C [5]","viability, T/C [6]","viability, T/C [7]","viability, T/C [8]","viability, T/C [9]","viability, T/C [10]","viability, T/C [11]","viability, T/C [12]","viability, T/C [13]","viability, T/C [14]","viability, T/C [15]",also measured
COC(=O)c1ccc2c(C(=Nc3ccc(N(C)C(=O)CN4CCN(C)CC4)cc3)c3ccccc3)c(O)[nH]c2c1 + C=CC(=O)N1CCN(c2nc(=O)n(-c3c(C)ccnc3C(C)C)c3nc(-c4c(O)cccc4F)c(F)cc23)C(C)C1,3150 nM,2270 nM,2070 nM,2110 nM,1540 nM,109%,111%,102%,103%,49.8%,1.26%,105%,109%,102%,104%,28.1%,0.55%,113%,111%,110%,"viability, T/C [16]: 98.6%; viability, T/C [17]: 21.9%; viability, T/C [18]: 0.74%; viability, T/C [19]: 106%; viability, T/C [20]: 110%; viability, T/C [21]: 105%; viability, T/C [22]: 95.7%; viability, T/C [23]: 25.1%; viability, T/C [24]: 0.65%; viability, T/C [25]: 89.7%; viability, T/C [26]: 70.4%; viability, T/C [27]: 79.1%; viability, T/C [28]: 69.9%; viability, T/C [29]: 17.2%; viability, T/C [30]: 0.39%"
O=C(c1cc(Cc2n[nH]c(=O)c3ccccc23)ccc1F)N1CCN(C(=O)C2CC2)CC1 + C=CC(=O)N1CCN(c2nc(=O)n(-c3c(C)ccnc3C(C)C)c3nc(-c4c(O)cccc4F)c(F)cc23)C(C)C1,> 10000 nM,> 10000 nM,> 10000 nM,> 10000 nM,> 10000 nM,117%,115%,111%,113%,109%,94.1%,124%,115%,115%,113%,108%,103%,121%,119%,117%,"viability, T/C [16]: 118%; viability, T/C [17]: 114%; viability, T/C [18]: 100%; viability, T/C [19]: 114%; viability, T/C [20]: 119%; viability, T/C [21]: 122%; viability, T/C [22]: 117%; viability, T/C [23]: 111%; viability, T/C [24]: 93.5%; viability, T/C [25]: 86%; viability, T/C [26]: 84.8%; viability, T/C [27]: 85.4%; viability, T/C [28]: 79%; viability, T/C [29]: 90.9%; viability, T/C [30]: 71%"
